Measurements: patent US20250361230A1, “LATS Inhibitors and Uses Thereof” (The USA, as Represented by the Secretary, Dept. of Heath …, priority 2022, published 2025)

What was measured:
Assay type in all cases: biochemical
LATS1 = target: T1, LATS1 (Homo sapiens, UniProt O95835); assay: RBC HotSpot kinase assay (33P-ATP, P81 filter-binding), LATS1; conditions: Table 28, biochemical kinase assay; read-out: LATS1 IC50
T1 sequence (O95835 1-1130): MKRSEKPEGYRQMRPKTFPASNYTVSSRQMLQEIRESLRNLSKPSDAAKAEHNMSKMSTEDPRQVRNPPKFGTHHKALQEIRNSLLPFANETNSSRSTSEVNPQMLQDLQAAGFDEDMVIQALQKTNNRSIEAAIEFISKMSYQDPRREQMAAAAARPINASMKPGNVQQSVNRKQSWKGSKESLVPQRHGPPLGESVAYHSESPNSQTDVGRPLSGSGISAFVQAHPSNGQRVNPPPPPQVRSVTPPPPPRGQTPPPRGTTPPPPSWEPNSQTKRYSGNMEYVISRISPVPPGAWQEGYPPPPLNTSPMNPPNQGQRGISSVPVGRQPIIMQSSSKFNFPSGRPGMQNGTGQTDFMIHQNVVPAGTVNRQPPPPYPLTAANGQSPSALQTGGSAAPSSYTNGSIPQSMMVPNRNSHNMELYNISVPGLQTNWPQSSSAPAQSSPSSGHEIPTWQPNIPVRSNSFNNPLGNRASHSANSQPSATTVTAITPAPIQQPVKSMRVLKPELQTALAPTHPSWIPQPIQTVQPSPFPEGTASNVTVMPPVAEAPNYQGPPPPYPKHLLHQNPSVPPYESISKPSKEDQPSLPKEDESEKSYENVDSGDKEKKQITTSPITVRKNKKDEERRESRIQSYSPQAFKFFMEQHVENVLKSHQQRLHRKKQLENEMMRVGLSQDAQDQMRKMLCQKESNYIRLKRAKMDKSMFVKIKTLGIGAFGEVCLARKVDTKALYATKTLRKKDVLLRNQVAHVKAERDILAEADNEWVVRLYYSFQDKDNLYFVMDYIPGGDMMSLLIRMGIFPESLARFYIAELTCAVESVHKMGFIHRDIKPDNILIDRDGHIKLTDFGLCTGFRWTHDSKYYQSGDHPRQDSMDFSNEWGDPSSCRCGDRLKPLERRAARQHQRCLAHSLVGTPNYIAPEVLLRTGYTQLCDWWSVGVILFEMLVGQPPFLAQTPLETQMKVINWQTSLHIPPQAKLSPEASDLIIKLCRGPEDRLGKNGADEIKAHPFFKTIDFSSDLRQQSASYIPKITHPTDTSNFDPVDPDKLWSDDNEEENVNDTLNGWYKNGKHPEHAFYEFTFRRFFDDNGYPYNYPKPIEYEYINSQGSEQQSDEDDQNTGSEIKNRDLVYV
Method in brief: (§1)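 IC50 in nM was derived from 10-point, single-replicate titrations. Read-out was radiometric P81 filter binding following a 2 h room-temperature reaction with 33P-ATP, after 20 min compound preincubation.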

LATS2 = target: T2, LATS2 (Homo sapiens, UniProt Q9NRM7); assay: RBC HotSpot kinase assay (33P-ATP, P81 filter-binding), LATS2; conditions: Table 28, biochemical kinase assay; read-out: LATS2 IC50
T2 sequence (Q9NRM7 1-1088): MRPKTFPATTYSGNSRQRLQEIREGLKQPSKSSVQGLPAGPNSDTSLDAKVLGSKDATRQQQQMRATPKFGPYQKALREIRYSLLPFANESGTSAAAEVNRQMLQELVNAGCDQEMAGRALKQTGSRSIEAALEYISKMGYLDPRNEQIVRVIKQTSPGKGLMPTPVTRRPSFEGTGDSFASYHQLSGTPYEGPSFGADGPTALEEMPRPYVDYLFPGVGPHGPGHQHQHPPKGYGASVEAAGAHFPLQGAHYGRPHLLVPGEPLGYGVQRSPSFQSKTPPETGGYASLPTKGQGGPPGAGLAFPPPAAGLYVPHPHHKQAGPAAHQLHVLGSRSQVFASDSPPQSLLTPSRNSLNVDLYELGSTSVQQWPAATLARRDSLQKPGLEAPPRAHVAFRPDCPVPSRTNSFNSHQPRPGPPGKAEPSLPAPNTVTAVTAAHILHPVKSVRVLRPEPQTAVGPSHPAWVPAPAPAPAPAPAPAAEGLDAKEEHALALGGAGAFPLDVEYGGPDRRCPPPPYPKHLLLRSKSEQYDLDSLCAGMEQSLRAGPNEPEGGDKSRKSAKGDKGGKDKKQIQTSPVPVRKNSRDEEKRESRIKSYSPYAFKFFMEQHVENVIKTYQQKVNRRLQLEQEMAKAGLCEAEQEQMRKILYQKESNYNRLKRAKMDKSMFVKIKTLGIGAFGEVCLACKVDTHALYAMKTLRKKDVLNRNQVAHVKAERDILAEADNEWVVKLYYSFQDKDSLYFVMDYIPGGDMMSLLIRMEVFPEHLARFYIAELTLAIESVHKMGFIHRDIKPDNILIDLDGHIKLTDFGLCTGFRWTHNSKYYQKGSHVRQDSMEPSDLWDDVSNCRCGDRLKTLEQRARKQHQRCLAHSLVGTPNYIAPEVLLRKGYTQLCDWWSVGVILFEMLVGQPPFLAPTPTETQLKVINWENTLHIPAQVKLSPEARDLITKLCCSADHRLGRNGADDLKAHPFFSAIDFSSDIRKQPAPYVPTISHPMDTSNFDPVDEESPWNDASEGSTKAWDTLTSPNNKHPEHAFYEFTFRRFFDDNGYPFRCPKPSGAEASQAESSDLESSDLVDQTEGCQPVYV
Method in brief: as §1

AKT = AKT (Homo sapiens, UniProt P31749); assay: RBC HotSpot kinase assay (33P-ATP, P81 filter-binding), AKT; conditions: Table 28, biochemical kinase assay; read-out: AKT IC50
AKT, sequence (P31749 whole entry): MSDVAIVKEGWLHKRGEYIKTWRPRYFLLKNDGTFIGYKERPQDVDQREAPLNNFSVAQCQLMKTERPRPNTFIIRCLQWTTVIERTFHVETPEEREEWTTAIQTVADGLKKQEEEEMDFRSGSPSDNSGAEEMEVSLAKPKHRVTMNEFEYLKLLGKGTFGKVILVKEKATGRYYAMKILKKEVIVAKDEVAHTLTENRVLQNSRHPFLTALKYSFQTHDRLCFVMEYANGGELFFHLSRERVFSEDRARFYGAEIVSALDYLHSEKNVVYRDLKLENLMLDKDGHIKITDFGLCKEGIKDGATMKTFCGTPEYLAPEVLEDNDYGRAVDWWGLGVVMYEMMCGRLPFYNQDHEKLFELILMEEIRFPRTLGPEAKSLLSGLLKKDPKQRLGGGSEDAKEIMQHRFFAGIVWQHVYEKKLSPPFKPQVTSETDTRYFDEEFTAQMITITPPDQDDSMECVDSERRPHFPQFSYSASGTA
Method in brief: as §1

| IC50 (LATS1) | IC50 (LATS2) | IC50 (AKT) | SMILES |
| --- | --- | --- | --- |
| 3.7 nM | 5.5 nM | 312 nM | Cc1cc(-c2ccnc3[nH]cc(F)c23)ccc1CN [Compound 211, (4-(3-fluoro-1H-pyrrolo[2,3-b]pyridin-4-yl)-2-methylphenyl) methanamine] |
| 39 nM | 128 nM | 394 nM | NCc1ccc(-c2ccnc3[nH]cc(-c4ccccc4)c23)cc1-c1ccccc1 [Compound 219, (5-(3-phenyl-1H-pyrrolo[2,3-b]pyridin-4-yl)-[1,1′-biphenyl]-2-yl)methanamine] |
| 27.4 nM | 1420 nM | 13 nM | COC(=O)c1c[nH]c2nccc(-c3ccc(CN)cc3)c12 [Compound 223, methyl 4-(4-(aminomethyl)phenyl)-1H-pyrrolo[2,3-b]pyridine-3-carboxylate] |
| 17 nM | 16 nM | 1200 nM | Cc1cccc(-c2c[nH]c3nccc(-c4ccc(CN)cc4)c23)c1 [Compound 230, (4-(3-(m-tolyl)-1H-pyrrolo[2,3-b]pyridin-4-yl)phenyl) methanamine] |
| 1.1 nM | 1.2 nM | 229 nM | CC(C)(N)c1ccc(-c2ccnc3[nH]cc(F)c23)cc1 [Compound 238, 2-(4-(3-fluoro-1H-pyrrolo[2,3-b]pyridin-4-yl)phenyl)propan-2-amine] |
| 12 nM | 24 nM | 751 nM | NCc1ccc(-c2ccnc3[nH]cc(-c4cccnc4)c23)cc1 [Compound 245, (4-(3-(pyridin-3-yl)-1H-pyrrolo[2,3-b]pyridin-4-yl)phenyl) methanamine] |
| 13 nM | 5 nM | 983 nM | NCc1ccc(-c2ccnc3[nH]cc(-c4ccccc4)c23)cc1 [Compound 253, (4-(3-phenyl-1H-pyrrolo[2,3-b]pyridin-4-yl)phenyl) methanamine] |
| 3.4 nM | 5.2 nM | 116 nM | Cc1cc(-c2ccnc3[nH]cc(Cl)c23)ccc1CN [Compound 254, (4-(3-chloro-1H-pyrrolo[2,3-b]pyridin-4-yl)-2-methylphenyl) methanamine] |
| 6 nM | 5 nM | 249 nM | Cc1cc(-c2ccnc3[nH]ccc23)ccc1CN [Compound 266, (2-methyl-4-(1H-pyrrolo[2,3-b]pyridin-4-yl)phenyl) methanamine] |
| 11 nM | 10 nM | 308 nM | c1cc(-c2ccc3c(c2)CCNC3)c2cc[nH]c2n1 [Compound 267, 6-(1H-pyrrolo[2,3-b]pyridin-4-yl)-1,2,3,4-tetrahydroiso-quinoline] |
| 20 nM | 25 nM | 428 nM | c1cc(-c2ccc(C3CCCCN3)cc2)c2cc[nH]c2n1 (stereo not drawn) [Compound 271, 4-(4-(piperidin-2-yl)phenyl)-1H-pyrrolo[2,3-b]pyridine] |
| 13 nM | 8.4 nM | 266 nM | NCc1ccc(-c2ccnc3[nH]cc(F)c23)cc1 [Compound 275, (4-(3-fluoro-1H-pyrrolo[2,3-b]pyridin-4-yl)phenyl) methanamine] |
| 12 nM | 5.8 nM | 167 nM | NCc1ccc(-c2ccnc3[nH]cc(Cl)c23)cc1 [Compound 276, (4-(3-chloro-1H-pyrrolo[2,3-b]pyridin-4-yl)phenyl) methanamine] |
| 10 nM | 45 nM | 1150 nM | NCc1ccc(-c2ccnc3[nH]ccc23)cc1C(F)(F)F [Compound 284, (4-(1H-pyrrolo[2,3-b]pyridin-4-yl)-2-(trifluoromethyl)phenyl) methanamine] |
| 23 nM | 34 nM | 1030 nM | NCc1ccc(-c2ccnc3[nH]ccc23)cc1 [Compound 287, (4-(1H-pyrrolo[2,3-b]pyridin-4-yl)phenyl) methanamine] |
| 3.1 nM | 3 nM | 2270 nM | COC(=O)c1c[nH]c2nccc(-c3cc(C)c([C@@]4(O)[C@H](C)CN(C5CCS(=O)(=O)CC5)C[C@@H]4C)c(F)c3)c12 [Compound 309, methyl 4-(4-((3S,4s,5R)-1-(1,1-dioxidotetrahydro-2H-thiopyran-4-yl)-4-hydroxy-3,5-dimethylpiperidin-4-yl)-3-fluoro-5-methylphenyl)-1H-pyrrolo[2,3-b]pyridine-3-carboxylate] |
| 5.1 nM | 2.3 nM | 4420 nM | COC(=O)c1c[nH]c2nccc(-c3cc(C)c([C@@]4(O)[C@H](C)CN(C(=O)CN)C[C@@H]4C)c(F)c3)c12 [Compound 310, methyl 4-(3-fluoro-4-((3S,4s,5R)-1-glycyl-4-hydroxy-3,5-dimethylpiperidin-4-yl)-5-methylphenyl)-1H-pyrrolo[2,3-b]pyridine-3-carboxylate] |
| 8.1 nM | 3.5 nM | 153 nM | Cc1cc(-c2ccnc3[nH]cc(F)c23)cc(F)c1[C@@]1(O)[C@H](C)CN(C(=O)[C@H](N)CO)C[C@@H]1C [Compound 312, (R)-2-amino-1-((3S,4R,5R)-4-(2-fluoro-4-(3-fluoro-1H-pyrrolo[2,3-b]pyridin-4-yl)-6-methylphenyl)-4-hydroxy-3,5-dimethylpiperidin-1-yl)-3-hydroxypropan-1-one] |
| 4.4 nM | 1.6 nM | 312 nM | Cc1cc(-c2ccnc3[nH]cc(F)c23)cc(F)c1[C@@]1(O)[C@H](C)CN(C(=O)[C@@H](CO)N(C)C)C[C@@H]1C [Compound 313, (R)-2-(dimethylamino)-1-((3S,4S,5R)-4-(2-fluoro-4-(3-fluoro-1H-pyrrolo[2,3-b]pyridin-4-yl)-6-methylphenyl)-4-hydroxy-3,5-dimethylpiperidin-1-yl)-3-hydroxypropan-1-one] |

| SMILES | IC50 (LATS1) | IC50 (LATS2) | IC50 (AKT) |
| --- | --- | --- | --- |
| Cc1cc(-c2ccnc3[nH]cc(F)c23)cc(F)c1[C@@]1(O)[C@H](C)CN(C)C[C@@H]1C [Compound 304, (3S,4s,5R)-4-(2-fluoro-4-(3-fluoro-1H-pyrrolo[2,3-b]pyridin-4-yl)-6-methylphenyl)-1,3,5-trimethylpiperidin-4-ol] | 5.1 nM | 4 nM | 271 nM |
| Cc1cc(-c2ccnc3[nH]cc(F)c23)cc(F)c1[C@@]1(O)[C@H](C)CN(C(C)C)C[C@@H]1C [Compound 305, (3S,4s,5R)-4-(2-fluoro-4-(3-fluoro-1H-pyrrolo[2,3-b]pyridin-4-yl)-6-methylphenyl)-1-isopropyl-3,5-dimethylpiperidin-4-ol] | 4.1 nM | 3.7 nM | 758 nM |
